Experiments:
TDO = target: T1, TDO (Homo sapiens, UniProt P48775); assay: TDO Cellular Assay in Frozen SW48 Cells; format: cell-based; details: 300 uM L-tryptophan, about 48 hours, fluorescence readout
T1 construct: endogenous in cells; host or cells: SW48 cells (A2780 cells as control with minimal TDO activity)
Procedure: TDO Cellular Assay in Frozen SW48 Cells
SW48 cells were cultured in complete RPMI culture medium (90% RPMI, 10% heat-inactivated fetal bovine serum).
Compounds to be tested were serially diluted in ten 3-fold steps in DMSO starting from 10 mM DMSO stocks in Echo low volume plate(s). […] The cells were spun down at 350 g in a table top centrifuge for 5 minutes and suspended in same volume of RPMI assay medium. […] Sterile L-tryptophan (Sigma, Cat # T0254) was added to the cells with final concentration of 300 uM.
SW48 and A2780 cells were dispensed to the respective wells of 384-well assay plates containing the compounds. The plates were incubated for about 48 hours at a 37° C., 5% CO2 incubator. Afterwards, 12 μL of 0.5 M ethyl isonipecotate (Sigma Aldrich, Cat # E33505) in dimethyl sulfoxide were added into each well and the plates were sealed and incubated at 37° C. without CO2 overnight. The plates were centrifuged for 1 minute at 200×g. The resulting fluorescence was measured in a Spectramax plate reader (Molecular Devices) with a 400 nm excitation filter and a 510 nm emission filter.
The fluorescence intensity of each well was corrected for the background observed in wells with A2780 cells and was expressed as a fraction of the intensity observed in wells of SW48 cells and DMSO only. Potencies were calculated by linear least squares fit to the four parameter logistic IC50 equation.

IDO1 = IDO1 (Homo sapiens, UniProt P14902); assay: IDO1 Cellular Assay in Hela Cells Stimulated with IFNγ; format: cell-based; parameters: endogenous in cells; host or cells: HeLa cells stimulated with IFNγ (100 ng/mL); details: Hela cells stimulated with IFNγ 100 ng/mL, 300 uM L-tryptophan, about 48 hours, fluorescence readout
Procedure: IDO1 Cellular Assay in Hela Cells Stimulated with IFNγ
Hela cells were cultured in complete Hela culture medium (90% EMEM, 10% heat-inactivated fetal bovine serum) and expanded to about 1×10^9 cells. The cells were then collected and frozen down at 1×10^7 cells/vial in 1 mL frozen medium (90% complete Hela culture medium, 10% DMSO)
Compounds to be tested were serially diluted in ten 3-fold steps in DMSO starting from 10 mM DMSO stocks in Echo low volume plate(s).
Frozen Hela cells were thawed and transferred into Hela assay medium (99% complete Hela culture medium, 1% Pen/Strep) with 20 mL medium/vial of cells. The cells were spun down at 250 g in a table top centrifuge for 5 min and suspended in same volume of Hela assay medium. The cells were then counted and adjusted to a density of 2×10^5 cells/ml in Hela assay medium. Sterile L-tryptophan were added to the cells with final concentration of 300 uM L-tryptophan. A small aliquot (2 mL/plate) of Hela cells were set aside and were not treated with IFNγ, to serve as the Max-E control.
Hela cells with and without IFNγ were dispensed to the respective wells of 384-well assay plates containing the compounds. The plates were incubated for about 48 hours at a 37° C., 5% CO2 incubator. Afterwards, […] of 0.5 M methyl isonipecotate in dimethyl sulfoxide were added into each well and the plates were sealed and incubated at 37° C. without CO2 overnight. The plates were centrifuged for 1 min at 200×g. The resulting fluorescence was measured in a Spectramax plate reader (Molecular Devices) with a 400 nm excitation filter and a 510 nm emission filter.
Potencies were calculated by linear least squares fit to the four parameter logistic IC50 equation.

T1 sequence (P48775 whole entry): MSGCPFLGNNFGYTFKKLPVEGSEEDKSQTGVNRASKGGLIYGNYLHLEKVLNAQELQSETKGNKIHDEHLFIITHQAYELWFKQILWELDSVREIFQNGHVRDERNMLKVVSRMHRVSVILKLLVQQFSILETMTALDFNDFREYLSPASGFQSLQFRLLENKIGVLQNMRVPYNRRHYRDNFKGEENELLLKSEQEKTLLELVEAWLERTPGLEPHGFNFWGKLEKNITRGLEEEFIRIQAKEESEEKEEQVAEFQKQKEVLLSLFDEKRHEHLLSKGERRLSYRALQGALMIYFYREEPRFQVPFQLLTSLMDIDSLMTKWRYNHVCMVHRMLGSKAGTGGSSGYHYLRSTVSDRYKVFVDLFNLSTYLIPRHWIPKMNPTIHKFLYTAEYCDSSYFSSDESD
Sequence of IDO1 (P14902 whole entry): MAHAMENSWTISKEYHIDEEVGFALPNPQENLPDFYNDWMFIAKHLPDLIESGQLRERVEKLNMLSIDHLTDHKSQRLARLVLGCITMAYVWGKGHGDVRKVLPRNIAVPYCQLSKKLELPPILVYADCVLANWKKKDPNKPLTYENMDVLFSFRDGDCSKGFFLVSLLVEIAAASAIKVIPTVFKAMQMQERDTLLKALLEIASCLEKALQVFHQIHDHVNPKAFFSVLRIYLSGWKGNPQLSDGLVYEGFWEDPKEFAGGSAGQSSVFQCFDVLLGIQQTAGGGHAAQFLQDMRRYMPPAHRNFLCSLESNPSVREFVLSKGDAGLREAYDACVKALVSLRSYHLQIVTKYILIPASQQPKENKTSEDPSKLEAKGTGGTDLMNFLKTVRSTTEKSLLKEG

| SMILES | IC50 (TDO) [nM] | IC50 (IDO1) [nM] |
| --- | --- | --- |
| CCC1CC1NC(=O)C1(c2ccc(NC(=O)c3cccc(Cl)c3)cc2)CCC1 (stereo not drawn) [Example 31, 3-chloro-N-(4-{1-[(2-ethylcyclopropyl)carbamoyl]cyclobutyl}phenyl)benzamide] | ≥ 10000 | 8 |
| CCOC1CC1NC(=O)C1(c2ccc(NC(=O)c3cccc(Cl)c3)cc2)CCC1 (stereo not drawn) [Example 36, 3-chloro-N-(4-{1-[(2-ethoxycyclopropyl)carbamoyl]cyclobutyl}phenyl) benzamide] | ≥ 10000 | 24 |
| O=C(Nc1ccc(C2(C(=O)NC3CC3C(F)F)CCC2)cc1)c1cccc(Cl)c1 (stereo not drawn) [Example 37, 3-chloro-N-[4-(1-{[2-(difluoromethyl)cyclopropyl]carbamoyl}cyclobutyl)phenyl] benzamide] | ≥ 10000 | 28 |
| O=C(Nc1ccc(C2(C(=O)NC3CN(CC(F)(F)F)C3)CCC2)cc1)c1cccc(Cl)c1 [Example 44, 3-chloro-N-[4-(1-{[1-(2,2,2-trifluoroethyl)azetidin-3-yl]carbamoyl}cyclobutyl)phenyl]benzamide] | ≥ 10000 | 709 |
| CCOC(C)CNC(=O)C1(c2ccc(NC(=O)c3cccc(Cl)c3)cc2)CCC1 (stereo not drawn) [Example 45, 3-Chloro-N-(4-(1-((2-ethoxypropyl)carbamoyl)cyclobutyl)phenyl)benzamide] | ≥ 10000 | 58 |
| O=C(Nc1ccc(C2(C(=O)NCC(F)(F)F)CCC2)cc1)c1cccc(Cl)c1 [Example 49, 3-chloro-N-(4-{1-[(2,2,2-trifluoroethyl)carbamoyl]cyclobutyl}phenyl) benzamide] | ≥ 10000 | 126 |
| O=C(Nc1ccc(C2(C(=O)NS(=O)(=O)c3ccccc3)CCC2)cc1)c1cccc(Cl)c1 [Example 53, 3-chloro-N-(4-{1-[(phenylsulfonyl)carbamoyl]cyclobutyl}phenyl) benzamide] | ≥ 10000 | 834 |
| CCO[C@@H]1C[C@@H]1NC(=O)C1(c2ccc(NC(=O)c3cccc(Cl)c3)cc2)CC(F)(F)C1 [Example 64, 3-chloro-N-[4-(1-{[(1S,2R)-2-ethoxycyclopropyl]carbamoyl}-3,3-difluorocyclobutyl)phenyl] benzamide] | ≥ 10000 | 37 |

Second part, the molecule after the results:

| IC50 (TDO) [nM] | IC50 (IDO1) [nM] | SMILES |
| --- | --- | --- |
| ≥ 10000 | 39 | O=C(Nc1ccc(C2(C(=O)NC3CCCOC3)CCC2)cc1)c1cccc(Cl)c1 (stereo not drawn) [Example 40, 3-chloro-N-(4-{1-[(oxan-3-yl)carbamoyl]cyclobutyl}phenyl)benzamide] |
| ≥ 10000 | 119 | CC1(C)CC(NC(=O)C2(c3ccc(NC(=O)c4cccc(Cl)c4)cc3)CCC2)CCO1 (stereo not drawn) [Example 42, 3-chloro-N-(4-{1-[(2,2-dimethyloxan-4-yl)carbamoyl]cyclobutyl}phenyl)benzamide] |
| ≥ 10000 | 404 | O=C(Nc1ccc(C2(C(=O)N[C@H]3CCOC3)CCC2)cc1)c1cccc(Cl)c1 [Example 51, 3-chloro-N-[4-(1-{[(3S)-oxolan-3-yl]carbamoyl}cyclobutyl)phenyl]benzamide] |
| ≥ 10000 | 427 | O=C(Nc1ccc(C2(C(=O)N[C@@H]3CCOC3)CCC2)cc1)c1cccc(Cl)c1 [Example 52, 3-chloro-N-[4-(1-{[(3R)-oxolan-3-yl]carbamoyl}cyclobutyl)phenyl]benzamide] |
| ≥ 10000 | 17 | O=C(Nc1cccc(Cl)c1F)c1ccc(C2(C(=O)Nc3ccc(F)cn3)CCC2)cc1 [Example 59, N-(3-chloro-2-fluorophenyl)-4-(1-((5-fluoropyridin-2-yl)carbamoyl)cyclobutyl)benzamide] |
| ≥ 10000 | 489 | O=C(NC1CCCCC1)c1ccc(C2(C(=O)Nc3ccc(F)cn3)CCC2)cc1 [Example 60, N-cyclohexyl-4-{1-[(5-fluoropyridin-2-yl)carbamoyl]cyclobutyl} benzamide] |
| ≥ 10000 | 1810 | O=C(NC1CCC(F)(F)CC1)c1ccc(C2(C(=O)Nc3ccc(F)cn3)CCC2)cc1 [Example 61, N-(4,4-difluorocyclohexyl)-4-{1-[(5-fluoropyridin-2-yl)carbamoyl]cyclobutyl} benzamide] |
